# The source made the active and inactive calls. The calls are words filed in the database; no cut-off is given here.
# Experiments:
# Assay type in all cases: functional, organism-based
# Felis catus [1] = test: Increase in granule content containing the peroxidase reaction product discharged into acinar lumen in cat at 0.3 mg/kg, iv after 20 mins
# Felis catus [2] = test: Effect on activity of peroxidase in acinar cells of cat at 0.3 mg/kg, iv dosed 10 mins before dosing of 7.3 mg/kg, iv propranolol and measured after 60 mins post ligand dose
# Felis catus [3] = test: Effect on peroxidase reaction product in r-ER, Golgi complex, and secretory granules in acinar cells of cat at 0.3 mg/kg, iv dosed 10 mins before dosing of 7.3 mg/kg, iv propranolol and measured after 20 mins post ligand dose
# Felis catus [4] = test: Reduction in secretion rate of electron dense peroxidase-positive granules in cat at 0.3 mg/kg, iv after 60 mins
# Felis catus [5] = test: Effect on distribution of peroxidase in acinar cells of cat at 0.3 mg/kg, iv dosed 10 mins before dosing of 7.3 mg/kg, iv propranolol and measured after 60 mins post ligand dose by electron microscopy
# Felis catus [6] = test: Effect on peroxidase reaction product in r-ER, Golgi complex, and secretory granules in acinar cells of cat at 0.3 mg/kg, iv dosed 10 mins before dosing of 7.3 mg/kg, iv propranolol and measured after 60 mins post ligand dose
# Felis catus [7] = test: Effect on distribution of peroxidase in acinar cells of cat at 0.3 mg/kg, iv dosed 10 mins before dosing of 7.3 mg/kg, iv propranolol and measured after 20 mins post ligand dose by electron microscopy
# Felis catus [8] = test: Effect on activity of peroxidase in acinar cells of cat at 0.3 mg/kg, iv dosed 10 mins before dosing of 7.3 mg/kg, iv propranolol and measured after 20 mins post ligand dose
# Felis catus [9] = test: Effect on localization of peroxidase in secretory granules of cat at 7.3 mg/kg, iv administered as single dose measured after 30 mins by electron microscopy
# Felis catus [10] = test: Effect on activity of peroxidase in cat in rough golgi complex at 7.3 mg/kg, iv administered as single dose measured after 9 hrs; settings: Golgi body
# Felis catus [11] = test: Decrease in Peroxidase activity in acinar cells of the nasal glands of cat at 8 mg/kg, iv dosed over 7 hours
# Felis catus [12] = test: Increase in electron-lucent secretory granules in cat at 7.3 mg/kg, iv administered as single dose measured after 5 hrs by electron microscopy
# Felis catus [13] = test: Effect on localization of peroxidase in rough golgi complex of cat at 7.3 mg/kg, iv administered as single dose measured after 30 mins by electron microscopy; settings: Golgi body
# Felis catus [14] = test: Reduction in peroxidase-positive secretory granules in cat at 7.3 mg/kg, iv administered as single dose measured after 5 hrs by electron microscopy
# Felis catus [15] = test: Effect on activity of peroxidase in cat in rough golgi complex at 7.3 mg/kg, iv administered as single dose measured after 5 hrs; settings: Golgi body
# Felis catus [16] = test: Effect on activity of peroxidase in cat rough endoplasmic reticulum at 7.3 mg/kg, iv administered as single dose measured after 5 hrs
# Felis catus [17] = test: Increase in secretory granules without peroxidase activity in cat at 7.3 mg/kg, iv administered as single dose measured after 9 hrs by electron microscopy
# Felis catus [18] = test: Effect on activity of peroxidase in cat acinar cells at 7.3 mg/kg, iv administered as single dose measured after 30 mins
# Felis catus [19] = test: Effect on activity of peroxidase in cat rough endoplasmic reticulum at 7.3 mg/kg, iv administered as single dose measured after 9 hrs
# Felis catus [20] = test: Decrease in Peroxidase activity in rough endoplasmic reticulum of cat at 8 mg/kg, iv dosed over 7 hours
# Felis catus [21] = test: Effect on localization of peroxidase in rough endoplasmic reticulum of cat at 7.3 mg/kg, iv administered as single dose measured after 30 mins by electron microscopy
smiles,measurement,setting,value
CC(C)NCC(O)c1ccc(O)c(O)c1 (stereo unspecified),Activity,Felis catus [1],Active
same,Activity,Felis catus [2],inactive
same,Activity,Felis catus [3],inactive
same,Activity,Felis catus [4],Active
same,Activity,Felis catus [5],inactive
same,Activity,Felis catus [6],inactive
same,Activity,Felis catus [7],inactive
same,Activity,Felis catus [8],inactive
CC(C)NCC(O)COc1cccc2ccccc12 (stereo unspecified),Activity,Felis catus [9],inactive
same,Activity,Felis catus [10],inactive
same,Activity,Felis catus [11],Active
same,Activity,Felis catus [12],Active
same,Activity,Felis catus [13],inactive
same,Activity,Felis catus [14],Active
same,Activity,Felis catus [15],inactive
same,Activity,Felis catus [16],inactive
same,Activity,Felis catus [17],Active
same,Activity,Felis catus [18],inactive
same,Activity,Felis catus [19],inactive
same,Activity,Felis catus [20],Active
same,Activity,Felis catus [21],inactive
